According to PubChem BioAssay AID2351 (The Scripps Research Institute Molecular Screening Center, 2010):
The source made the active and inactive calls. The rule behind the calls is not given here.

Target: Sphingosine 1-phosphate receptor 1 (Homo sapiens) (UniProt P21453)
Assay: PubChem AID 2351
Conditions: S1P1-expressing cells, fluorescence antagonist assay

Chain of Sphingosine 1-phosphate receptor 1 (Homo sapiens) (P21453 whole entry, looked up): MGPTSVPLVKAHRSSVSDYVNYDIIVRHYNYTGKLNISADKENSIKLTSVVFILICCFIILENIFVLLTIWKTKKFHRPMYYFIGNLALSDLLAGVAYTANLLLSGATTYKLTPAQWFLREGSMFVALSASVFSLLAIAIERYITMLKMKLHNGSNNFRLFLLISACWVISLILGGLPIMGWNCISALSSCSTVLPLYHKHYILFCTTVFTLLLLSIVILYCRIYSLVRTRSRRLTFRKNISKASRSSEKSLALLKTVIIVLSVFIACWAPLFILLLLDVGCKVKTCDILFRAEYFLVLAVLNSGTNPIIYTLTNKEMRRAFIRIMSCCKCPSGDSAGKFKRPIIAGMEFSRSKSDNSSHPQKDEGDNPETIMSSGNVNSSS

IC50: > 25 µM (inactive)
Compound: Cc1cccc(C)c1NC(=O)c1ccc(-c2cc(Cl)ccc2Cl)o1
